# Key:
# [1] = target: T1, isolated kinase domain of the human FLT3 receptor (a.a. 571-993) (Homo sapiens, UniProt P36888); test: FLT3 Fluorescence Polarization Kinase Assay; assay type: biochemical; conditions: 10 nM FLT3 571-993, 150 uM ATP; uncertainty ±10%
# T1 construct: isolated kinase domain of the human FLT3 receptor (a.a. 571-993)
# T1 sequence (P36888 571-993): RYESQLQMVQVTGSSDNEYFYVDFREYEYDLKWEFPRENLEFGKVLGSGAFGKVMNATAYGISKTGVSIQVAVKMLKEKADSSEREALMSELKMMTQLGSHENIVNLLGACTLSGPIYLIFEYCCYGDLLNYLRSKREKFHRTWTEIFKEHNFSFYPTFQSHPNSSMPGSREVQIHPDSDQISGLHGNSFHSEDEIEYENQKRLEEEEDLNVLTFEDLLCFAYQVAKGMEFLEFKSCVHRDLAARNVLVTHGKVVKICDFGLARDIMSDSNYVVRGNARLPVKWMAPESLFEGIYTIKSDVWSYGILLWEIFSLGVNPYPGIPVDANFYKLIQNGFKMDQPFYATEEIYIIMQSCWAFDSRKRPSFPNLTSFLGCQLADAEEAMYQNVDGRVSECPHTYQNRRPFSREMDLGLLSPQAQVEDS
# Method: FLT3 Fluorescence Polarization Kinase Assay
# To determine the activity of the FLT3 inhibitors of Formula I′ in an in vitro kinase assay, inhibition of the isolated kinase domain of the human FLT3 receptor (a.a. 571-993) was performed using the following fluorescence polarization (FP) protocol. The FLT3 FP assay utilizes the fluorescein-labeled phosphopeptide and the anti-phosphotyrosine antibody included in the Panvera Phospho-Tyrosine Kinase Kit (Green) supplied by Invitrogen. When FLT3 phosphorylates polyGlu4Tyr, the fluorescein-labeled phosphopeptide is displaced from the anti-phosphotyrosine antibody by the phosphorylated poly Glu4Tyr, thus decreasing the FP value. The FLT3 kinase reaction is incubated at room temperature for 30 minutes under the following conditions: 10 nM FLT3 571-993, 20 ug/mL poly Glu4Tyr, 150 uM ATP, 5 mM MgCl2, 1% compound in DMSO. The kinase reaction is stopped with the addition of EDTA. The fluorescein-labeled phosphopeptide and the anti-phosphotyrosine antibody are added and incubated for 30 minutes at room temperature.
# All data points are an average of triplicate samples. Inhibition and IC50 data analysis was done with GraphPad Prism using a non-linear regression fit with a multiparamater, sigmoidal dose-response (variable slope) equation.
# [2] = tested on: MV4-11 cells; test: Inhibition of MV4-11 cell proliferation (CellTiterGlo, 72 hours); assay type: cell-based; conditions: Homo sapiens; 72 hours growth; uncertainty ±20%
# Method: Inhibition Of MV4-11 and Baf3 Cell Proliferation
# To assess the cellular potency of the FLT3 inhibitors of Formula I′, FLT3 specific growth inhibition was measured in the leukemic cell line MV4-11 (ATCC Number: CRL-9591). […] MV4-11 cells cannot grow and survive without active FLT3ITD.
# To measure proliferation inhibition by test compounds, the luciferase based CellTiterGlo reagent (Promega), which quantifies total cell number based on total cellular ATP concentration, was used. Cells are plated at 10,000 cells per well in 100 ul of in RPMI media containing penn/strep, 10% FBS and 1 ng/ml GM-CSF or 1 ng/ml IL-3 for MV4-11 and Baf3 cells respectively.
# Compound dilutions or 0.1% DMSO (vehicle control) are added to cells and the cells are allowed to grow for 72 hours at standard cell growth conditions (37° C., 5% CO2). For activity measurements in MV4-11 cells grown in 50% plasma, cells were plated at 10,000 cells per well in a 1:1 mixture of growth media and human plasma (final volume of 100 μL). To measure total cell growth an equal volume of CellTiterGlo reagent was added to each well, according to the manufacturer's instructions, and luminescence was quantified. Total cell growth was quantified as the difference in luminescent counts (relative light units, RLU) of cell number at Day 0 compared to total cell number at Day 3 (72 hours of growth and/or compound treatment). One hundred percent inhibition of growth is defined as an RLU equivalent to the Day 0 reading. Zero percent inhibition was defined as the RLU signal for the DMSO vehicle control at Day 3 of growth. All data points are an average of triplicate samples. […] Inhibition and IC50 data analysis was done with GraphPad Prism using a non-linear regression fit with a multiparamater, sigmoidal dose-response (variable slope) equation.
# MV4-11 cells express the FLT3 internal tandem duplication mutation, and thus are entirely dependent upon FLT3 activity for growth. […] In contrast, the Baf3 cell proliferation is driven by the cytokine IL-3 and thus are used as a non-specific toxicity control for test compounds.
SMILES,IC50 [1] [nM],IC50 [2] [nM]
"CO/N=C/c1c(N)ncnc1N1CCC(NC(=O)Nc2ccc(OC(C)C)cc2)CC1 [Number 12, 1-{1-[6-Amino-5-(methoxyimino-methyl)-pyrimidin-4-yl]-piperidin-4-yl}-3-(4-isopropoxy-phenyl)-urea]",460,672
"CO/N=C/c1c(N)ncnc1N1CCC(NC(=O)Nc2ccc(N3CCOCC3)cc2)C1 (stereo not shown) [Number 10, 1-{1-[6-Amino-5-(methoxyimino-methyl)-pyrimidin-4-yl]-pyrrolidin-3-yl}-3-(4-morpholin-4-yl-phenyl)-urea]",1100,569
"CCO/N=C/c1c(N)ncnc1N1CCC(OC(=O)Nc2ccc(OC(C)C)cc2)CC1 [Number 2, (4-Isopropoxy-phenyl)-carbamic acid 1-[6-amino-5-(ethoxyimino-methyl)-pyrimidin-4-yl]-piperidin-4-yl ester]",55,135
"CC(C)Oc1ccc(NC(=O)OC2CCN(c3ncnc(N)c3/C=N/OCCCN(C)C)CC2)cc1 [Number 4, (4-Isopropoxy-phenyl)-carbamic acid 1-{6-amino-5-[(3-dimethylamino-propoxyimino)-methyl]-pyrimidin-4-yl}-piperidin-4-yl ester]",300,1400
"CO/N=C/c1c(N)ncnc1N1CCC(NC(=O)Nc2ccc(N3CCOCC3)cc2)CC1 [Number 14, 1-{1-[6-Amino-5-(methoxyimino-methyl)-pyrimidin-4-yl]-piperidin-4-yl}-3-(4-morpholin-4-yl-phenyl)-urea]",880,1200
"CO/N=C/c1c(N)ncnc1N1CCC(CC(=O)Nc2ccc(C(C)C)cc2)CC1 [Number 7, 2-{1-[6-Amino-5-(methoxyimino-methyl)-pyrimidin-4-yl]-piperidin-4-yl}-N-(4-isopropyl-phenyl)-acetamide]",81,208
"CO/N=C/c1c(N)ncnc1N1CCC(NC(=O)Nc2ccc(OC(C)C)cc2)C1 (stereo not shown) [Number 8, 1-{1-[6-Amino-5-(methoxyimino-methyl)-pyrimidin-4-yl]-pyrrolidin-3-yl}-3-(4-isopropoxy-phenyl)-urea]",290,455
"CO/N=C/c1c(N)ncnc1N1CCC(OC(=O)Nc2ccc(OC(C)C)cc2)CC1 [Number 1, (4-Isopropoxy-phenyl)-carbamic acid 1-[6-amino-5-(methoxyimino-methyl)-pyrimidin-4-yl]-piperidin-4-yl ester]",150,740
"CO/N=C/c1c(N)ncnc1N1CCC(OC(=O)Nc2ccc(C(C)C)cc2)CC1 [Number 5, (4-Isopropyl-phenyl)-carbamic acid 1-[6-amino-5-(methoxyimino-methyl)-pyrimidin-4-yl]-piperidin-4-yl ester]",29,11
"CO/N=C/c1c(N)ncnc1N1CCC(CC(=O)Nc2ccc(C(C)C)cc2)C1 (stereo not shown) [Number 6, 2-{1-[6-Amino-5-(methoxyimino-methyl)-pyrimidin-4-yl]-pyrrolidin-3-yl}-N-(4-isopropyl-phenyl)-acetamide]",16,31
"CO/N=C/c1c(N)ncnc1N1CCC(NC(=O)Nc2ccc(N3CCCCC3)cc2)CC1 [Number 13, 1-{1-[6-Amino-5-(methoxyimino-methyl)-pyrimidin-4-yl]-piperidin-4-yl}-3-(4-piperidin-1-yl-phenyl)-urea]",310,587
"CO/N=C/c1c(N)ncnc1N1CCC(NC(=O)Nc2ccc(OC3CCC3)nc2)C1 (stereo not shown) [Number 11, 1-{1-[6-Amino-5-(methoxyimino-methyl)-pyrimidin-4-yl]-pyrrolidin-3-yl}-3-(6-cyclobutoxy-pyridin-3-yl)-urea]",160,398
"CO/N=C/c1c(N)ncnc1N1CCC(NC(=O)Nc2ccc(OC3CCC3)nc2)CC1 [Number 15, 1-{1-[6-Amino-5-(methoxyimino-methyl)-pyrimidin-4-yl]-piperidin-4-yl}-3-(6-cyclobutoxy-pyridin-3-yl)-urea]",410,578

# Now from value to compound:
IC50 [1] [nM],IC50 [2] [nM],SMILES
20,856,"CO/N=C/c1c(N)ncnc1N1CCC(NC(=O)Nc2ccc(Oc3ccccc3)cc2)CC1 [Number 26, 1-{1-[6-Amino-5-(methoxyimino-methyl)-pyrimidin-4-yl]-piperidin-4-yl}-3-(4-phenoxy-phenyl)-urea]"
78,672,"CO/N=C/c1c(N)ncnc1N1CCC(NC(=O)Nc2ccc(C3CCCCC3)cc2)CC1 [Number 22, 1-{1-[6-Amino-5-(methoxyimino-methyl)-pyrimidin-4-yl]-piperidin-4-yl}-3-(4-cyclohexyl-phenyl)-urea]"
65,651,"CO/N=C/c1c(N)ncnc1N1CCC(NC(=O)Nc2ccc(OC3CCCC3)nc2)CC1 [Number 23, 1-{1-[6-Amino-5-(methoxyimino-methyl)-pyrimidin-4-yl]-piperidin-4-yl}-3-(6-cyclopentyloxy-pyridin-3-yl)-urea]"
2500,371,"CO/N=C/c1c(N)ncnc1N1CCC(NC(=O)Nc2ccc(Oc3ccccc3)cc2)C1 (stereo not shown) [Number 19, 1-{1-[6-Amino-5-(methoxyimino-methyl)-pyrimidin-4-yl]-pyrrolidin-3-yl}-3-(4-phenoxy-phenyl)-urea]"
> 10000,386,"CO/N=C/c1c(N)ncnc1N1CCC(NC(=O)Nc2ccc(C3CCCCC3)cc2)C1 (stereo not shown) [Number 17, 1-{1-[6-Amino-5-(methoxyimino-methyl)-pyrimidin-4-yl]-pyrrolidin-3-yl}-3-(4-cyclohexyl-phenyl)-urea]"
4500,491,"CO/N=C/c1c(N)ncnc1N1CCC(NC(=O)Nc2ccc(N3CCCC3)cc2)C1 (stereo not shown) [Number 20, 1-{1-[6-Amino-5-(methoxyimino-methyl)-pyrimidin-4-yl]-pyrrolidin-3-yl}-3-(4-pyrrolidin-1-yl-phenyl)-urea]"
2700,498,"CCNC(=O)NCCO/N=C/c1c(N)ncnc1N1CCC(NC(=O)Nc2ccc(C(C)C)cc2)C1 (stereo not shown) [Number 28, 1-[1-(6-Amino-5-{[2-(3-ethyl-ureido)-ethoxyimino]-methyl}-pyrimidin-4-yl)-pyrrolidin-3-yl]-3-(4-isopropyl-phenyl)-urea]"
2970,735,"CO/N=C/c1c(N)ncnc1N1CCC(NC(=O)Nc2ccc(Cl)cc2)C1 (stereo not shown) [Number 18, 1-{1-[6-Amino-5-(methoxyimino-methyl)-pyrimidin-4-yl]-pyrrolidin-3-yl}-3-(4-chloro-phenyl)-urea]"
4500,249,"CO/N=C/c1c(N)ncnc1N1CCC(NC(=O)Nc2ccc(OC3CCCC3)nc2)C1 (stereo not shown) [Number 21, 1-{1-[6-Amino-5-(methoxyimino-methyl)-pyrimidin-4-yl]-pyrrolidin-3-yl}-3-(6-cyclopentyloxy-pyridin-3-yl)-urea]"
1200,856,"CC(C)c1ccc(NC(=O)NC2CCN(c3ncnc(N)c3/C=N/OCC(=O)N3CCOCC3)C2)cc1 (stereo not shown) [Number 29, 1-(1-{6-Amino-5-[(2-morpholin-4-yl-2-oxo-ethoxyimino)-methyl]-pyrimidin-4-yl}-pyrrolidin-3-yl)-3-(4-isopropyl-phenyl)-urea]"

# Reference: patent US20060281700A1, “SYNERGISTIC MODULATION OF FLT3 KINASE USING AMINOPYRIMIDINES KINASE MODULATORS” (priority 2005, published 2006)
